Legend:
Histone deacetylase 1 = Histone deacetylase 1 (Homo sapiens, UniProt Q13547); test: Inhibition of HDAC1 (unknown origin)
PC-3 [1] = test: Antiproliferative activity against human PC-3 cells incubated for 24 hrs by MTT assay; type: functional, cell-based; settings: PC-3, 24 h
HCT-116 [2] = test: cells; type: functional, cell-based; settings: Homo sapiens, HCT-116, 24 h
Description: Antiproliferative activity against human HCT-116 cells incubated for 24 hrs by MTT assay

NCI-H2228 [3] = test: Antiproliferative activity against human NCI-H2228 cells incubated for 24 hrs by MTT assay; type: functional, cell-based; settings: NCI-H2228, 24 h
Huh-7 [4] = test: Antiproliferative activity against human Huh-7 cells incubated for 24 hrs by MTT assay; type: functional, cell-based; settings: Huh-7, 24 h
MCF7 [5] = test: cells; type: functional, cell-based; settings: Homo sapiens, MCF7, 24 h
Description: Antiproliferative activity against human MCF7 cells incubated for 24 hrs by MTT assay

MDA-MB-231 [6] = test: cells; type: functional, cell-based; settings: Homo sapiens, MDA-MB-231, 24 h
PC-3 [7] = test: Antiproliferative activity against human PC-3 cells incubated for 24 hrs in presence of SAHA by MTT assay; type: functional, cell-based; settings: PC-3, 24 h
NCI-H2228 [8] = test: Antiproliferative activity against human NCI-H2228 cells incubated for 24 hrs in presence of SAHA by MTT assay; type: functional, cell-based; settings: NCI-H2228, 24 h
Huh-7 [9] = test: Antiproliferative activity against human Huh-7 cells incubated for 24 hrs in presence of SAHA by MTT assay; type: functional, cell-based; settings: Huh-7, 24 h
HCT-116 [10] = test: cells; settings: Homo sapiens, HCT-116, 24 h
Description: Antiproliferative activity against human HCT-116 cells incubated for 24 hrs in presence of SAHA by MTT assay

MCF7 [11] = test: cells; settings: Homo sapiens, MCF7, 24 h
Description: Antiproliferative activity against human MCF7 cells incubated for 24 hrs in presence of SAHA by MTT assay

MDA-MB-231 [12] = test: cells; settings: Homo sapiens, MDA-MB-231, 24 h
Description: Antiproliferative activity against human MDA-MB-231 cells incubated for 24 hrs in presence of SAHA by MTT assay

Histone deacetylase 2 = Histone deacetylase 2 (Homo sapiens, UniProt Q92769); test: Inhibition of HDAC2 (unknown origin)
Histone deacetylase 3 = Histone deacetylase 3 (Homo sapiens, UniProt O15379)
Description: Inhibition of HDAC3 (unknown origin)

Histone deacetylase 4 = Histone deacetylase 4 (Homo sapiens, UniProt P56524)
Description: Inhibition of HDAC4 (unknown origin)

Histone deacetylase 5 = Histone deacetylase 5 (Homo sapiens, UniProt Q9UQL6)
Description: Inhibition of HDAC5 (unknown origin)

[13] = target: T1, Protein deacetylase HDAC6 (Homo sapiens, UniProt Q9UBN7)
T1 sequence (Q9UBN7 whole entry): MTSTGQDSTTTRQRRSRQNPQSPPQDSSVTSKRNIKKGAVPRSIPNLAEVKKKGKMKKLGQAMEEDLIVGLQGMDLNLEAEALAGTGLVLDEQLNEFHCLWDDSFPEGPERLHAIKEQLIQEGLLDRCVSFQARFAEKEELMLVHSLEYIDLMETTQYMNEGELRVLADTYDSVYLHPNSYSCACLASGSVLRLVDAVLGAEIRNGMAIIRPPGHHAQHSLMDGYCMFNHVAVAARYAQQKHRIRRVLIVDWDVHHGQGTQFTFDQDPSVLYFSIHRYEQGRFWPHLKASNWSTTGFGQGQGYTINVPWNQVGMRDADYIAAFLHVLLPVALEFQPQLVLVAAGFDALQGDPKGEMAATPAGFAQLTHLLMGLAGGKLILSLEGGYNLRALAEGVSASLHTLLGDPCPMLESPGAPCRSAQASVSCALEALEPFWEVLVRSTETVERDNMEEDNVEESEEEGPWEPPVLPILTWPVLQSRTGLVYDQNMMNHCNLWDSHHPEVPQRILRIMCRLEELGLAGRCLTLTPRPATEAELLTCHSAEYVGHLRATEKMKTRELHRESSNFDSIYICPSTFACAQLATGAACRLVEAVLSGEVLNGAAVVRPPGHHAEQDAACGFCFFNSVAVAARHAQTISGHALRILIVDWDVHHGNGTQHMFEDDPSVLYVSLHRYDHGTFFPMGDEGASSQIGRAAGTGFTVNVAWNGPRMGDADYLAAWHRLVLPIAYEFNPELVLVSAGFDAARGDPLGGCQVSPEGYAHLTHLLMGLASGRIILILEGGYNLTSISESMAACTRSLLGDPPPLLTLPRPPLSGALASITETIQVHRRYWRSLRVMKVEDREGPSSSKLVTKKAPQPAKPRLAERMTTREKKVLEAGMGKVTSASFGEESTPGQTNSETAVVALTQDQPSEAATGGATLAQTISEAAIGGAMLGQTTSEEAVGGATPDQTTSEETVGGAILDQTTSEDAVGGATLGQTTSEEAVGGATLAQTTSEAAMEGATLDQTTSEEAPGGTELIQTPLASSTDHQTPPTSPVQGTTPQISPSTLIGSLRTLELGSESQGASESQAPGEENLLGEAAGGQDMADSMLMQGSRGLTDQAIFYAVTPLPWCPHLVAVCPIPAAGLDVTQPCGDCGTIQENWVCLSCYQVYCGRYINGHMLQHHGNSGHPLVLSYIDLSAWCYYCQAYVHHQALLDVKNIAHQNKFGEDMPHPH
Description: Inhibition of HDAC6 (unknown origin)

Histone deacetylase 7 = target: T2, Histone deacetylase 7 (Homo sapiens, UniProt Q8WUI4)
T2 sequence (Q8WUI4 whole entry): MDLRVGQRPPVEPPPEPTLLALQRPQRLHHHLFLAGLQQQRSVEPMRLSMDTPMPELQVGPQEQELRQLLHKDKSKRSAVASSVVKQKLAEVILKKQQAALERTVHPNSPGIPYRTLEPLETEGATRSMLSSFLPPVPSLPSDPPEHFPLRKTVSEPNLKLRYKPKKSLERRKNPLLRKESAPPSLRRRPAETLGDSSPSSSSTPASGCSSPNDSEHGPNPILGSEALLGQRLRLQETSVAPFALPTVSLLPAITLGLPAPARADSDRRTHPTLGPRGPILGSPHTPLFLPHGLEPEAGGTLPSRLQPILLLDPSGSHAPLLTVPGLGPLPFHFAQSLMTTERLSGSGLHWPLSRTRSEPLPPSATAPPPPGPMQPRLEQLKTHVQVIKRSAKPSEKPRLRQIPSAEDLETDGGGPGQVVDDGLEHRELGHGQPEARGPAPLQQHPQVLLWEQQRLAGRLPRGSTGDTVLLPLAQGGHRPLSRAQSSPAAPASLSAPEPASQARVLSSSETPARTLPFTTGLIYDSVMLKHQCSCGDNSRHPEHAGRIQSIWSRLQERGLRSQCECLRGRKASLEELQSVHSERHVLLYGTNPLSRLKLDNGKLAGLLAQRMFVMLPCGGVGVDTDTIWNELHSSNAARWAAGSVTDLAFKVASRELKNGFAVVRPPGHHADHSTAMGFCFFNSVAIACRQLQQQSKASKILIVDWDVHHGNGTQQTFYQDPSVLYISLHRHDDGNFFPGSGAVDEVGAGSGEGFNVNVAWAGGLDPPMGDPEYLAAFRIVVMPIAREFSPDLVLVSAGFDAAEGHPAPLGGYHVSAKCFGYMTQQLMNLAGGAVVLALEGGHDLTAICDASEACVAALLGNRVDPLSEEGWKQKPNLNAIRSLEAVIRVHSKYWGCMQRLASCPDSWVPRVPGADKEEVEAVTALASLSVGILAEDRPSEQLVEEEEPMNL
Description: Inhibition of HDAC7 (unknown origin)

Histone deacetylase 8 = target: T3, Histone deacetylase 8 (Homo sapiens, UniProt Q9BY41)
T3 sequence (Q9BY41 whole entry): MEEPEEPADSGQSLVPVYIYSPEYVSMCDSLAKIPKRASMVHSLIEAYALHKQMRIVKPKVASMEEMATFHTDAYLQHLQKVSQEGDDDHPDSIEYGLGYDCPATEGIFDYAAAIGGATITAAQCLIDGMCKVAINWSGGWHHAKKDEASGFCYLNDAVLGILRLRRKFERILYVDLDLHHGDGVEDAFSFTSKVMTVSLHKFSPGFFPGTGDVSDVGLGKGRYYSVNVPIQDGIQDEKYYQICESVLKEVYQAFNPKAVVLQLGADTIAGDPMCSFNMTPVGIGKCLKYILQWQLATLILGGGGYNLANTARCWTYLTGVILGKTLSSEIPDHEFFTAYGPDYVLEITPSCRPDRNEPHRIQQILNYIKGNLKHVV
Description: Inhibition of HDAC8 (unknown origin)

Histone deacetylase 9 = Histone deacetylase 9 (Homo sapiens, UniProt Q9UKV0)
Description: Inhibition of HDAC9 (unknown origin)

[14] = target: T4, Polyamine deacetylase HDAC10 (Homo sapiens, UniProt Q969S8)
T4 sequence (Q969S8 whole entry): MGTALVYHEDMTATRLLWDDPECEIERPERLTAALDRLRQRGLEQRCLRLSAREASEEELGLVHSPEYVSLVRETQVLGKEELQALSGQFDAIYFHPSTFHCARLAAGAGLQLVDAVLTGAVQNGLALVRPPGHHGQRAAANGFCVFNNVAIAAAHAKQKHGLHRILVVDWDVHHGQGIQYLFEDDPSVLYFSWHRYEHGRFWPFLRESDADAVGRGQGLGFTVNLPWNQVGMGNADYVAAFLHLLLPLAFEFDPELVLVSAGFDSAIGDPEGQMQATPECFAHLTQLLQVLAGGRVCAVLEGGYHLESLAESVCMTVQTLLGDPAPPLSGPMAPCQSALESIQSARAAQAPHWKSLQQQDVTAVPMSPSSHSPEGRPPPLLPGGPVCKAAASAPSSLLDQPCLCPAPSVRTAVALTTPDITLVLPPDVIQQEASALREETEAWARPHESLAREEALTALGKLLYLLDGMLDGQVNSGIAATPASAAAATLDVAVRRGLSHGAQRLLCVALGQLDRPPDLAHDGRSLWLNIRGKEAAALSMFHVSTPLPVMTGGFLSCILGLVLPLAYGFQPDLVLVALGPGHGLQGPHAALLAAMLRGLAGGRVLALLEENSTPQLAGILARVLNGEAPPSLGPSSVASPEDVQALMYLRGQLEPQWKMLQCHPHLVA
Description: Inhibition of HDAC10 (unknown origin)

Histone deacetylase 11 = target: T5, Histone deacetylase 11 (Homo sapiens, UniProt Q96DB2)
T5 sequence (Q96DB2 whole entry): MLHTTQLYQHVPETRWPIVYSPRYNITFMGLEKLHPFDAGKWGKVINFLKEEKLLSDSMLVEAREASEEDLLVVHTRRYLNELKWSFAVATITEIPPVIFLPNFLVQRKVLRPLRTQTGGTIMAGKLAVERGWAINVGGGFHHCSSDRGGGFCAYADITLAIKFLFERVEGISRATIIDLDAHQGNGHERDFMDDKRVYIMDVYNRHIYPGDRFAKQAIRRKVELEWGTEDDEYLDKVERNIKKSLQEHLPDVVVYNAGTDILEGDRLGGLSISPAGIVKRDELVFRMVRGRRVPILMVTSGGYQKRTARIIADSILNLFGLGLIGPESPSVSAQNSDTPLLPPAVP
Description: Inhibition of HDAC11 (unknown origin)

Sequence of Histone deacetylase 1 (Q13547 whole entry): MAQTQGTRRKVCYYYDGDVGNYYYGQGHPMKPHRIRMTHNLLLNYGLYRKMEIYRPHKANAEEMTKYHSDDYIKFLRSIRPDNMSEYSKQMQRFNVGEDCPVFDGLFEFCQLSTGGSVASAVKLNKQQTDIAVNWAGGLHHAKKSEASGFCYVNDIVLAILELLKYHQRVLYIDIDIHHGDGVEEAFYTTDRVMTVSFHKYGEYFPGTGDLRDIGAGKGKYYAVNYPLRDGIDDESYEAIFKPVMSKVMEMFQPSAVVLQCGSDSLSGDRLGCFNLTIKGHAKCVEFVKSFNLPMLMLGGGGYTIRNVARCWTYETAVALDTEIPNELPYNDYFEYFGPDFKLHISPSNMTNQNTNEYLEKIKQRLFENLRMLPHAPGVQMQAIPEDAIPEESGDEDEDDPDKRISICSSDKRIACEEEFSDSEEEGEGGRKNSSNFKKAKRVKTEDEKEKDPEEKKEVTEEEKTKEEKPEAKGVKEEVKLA
Sequence of Histone deacetylase 5 (Q9UQL6 whole entry): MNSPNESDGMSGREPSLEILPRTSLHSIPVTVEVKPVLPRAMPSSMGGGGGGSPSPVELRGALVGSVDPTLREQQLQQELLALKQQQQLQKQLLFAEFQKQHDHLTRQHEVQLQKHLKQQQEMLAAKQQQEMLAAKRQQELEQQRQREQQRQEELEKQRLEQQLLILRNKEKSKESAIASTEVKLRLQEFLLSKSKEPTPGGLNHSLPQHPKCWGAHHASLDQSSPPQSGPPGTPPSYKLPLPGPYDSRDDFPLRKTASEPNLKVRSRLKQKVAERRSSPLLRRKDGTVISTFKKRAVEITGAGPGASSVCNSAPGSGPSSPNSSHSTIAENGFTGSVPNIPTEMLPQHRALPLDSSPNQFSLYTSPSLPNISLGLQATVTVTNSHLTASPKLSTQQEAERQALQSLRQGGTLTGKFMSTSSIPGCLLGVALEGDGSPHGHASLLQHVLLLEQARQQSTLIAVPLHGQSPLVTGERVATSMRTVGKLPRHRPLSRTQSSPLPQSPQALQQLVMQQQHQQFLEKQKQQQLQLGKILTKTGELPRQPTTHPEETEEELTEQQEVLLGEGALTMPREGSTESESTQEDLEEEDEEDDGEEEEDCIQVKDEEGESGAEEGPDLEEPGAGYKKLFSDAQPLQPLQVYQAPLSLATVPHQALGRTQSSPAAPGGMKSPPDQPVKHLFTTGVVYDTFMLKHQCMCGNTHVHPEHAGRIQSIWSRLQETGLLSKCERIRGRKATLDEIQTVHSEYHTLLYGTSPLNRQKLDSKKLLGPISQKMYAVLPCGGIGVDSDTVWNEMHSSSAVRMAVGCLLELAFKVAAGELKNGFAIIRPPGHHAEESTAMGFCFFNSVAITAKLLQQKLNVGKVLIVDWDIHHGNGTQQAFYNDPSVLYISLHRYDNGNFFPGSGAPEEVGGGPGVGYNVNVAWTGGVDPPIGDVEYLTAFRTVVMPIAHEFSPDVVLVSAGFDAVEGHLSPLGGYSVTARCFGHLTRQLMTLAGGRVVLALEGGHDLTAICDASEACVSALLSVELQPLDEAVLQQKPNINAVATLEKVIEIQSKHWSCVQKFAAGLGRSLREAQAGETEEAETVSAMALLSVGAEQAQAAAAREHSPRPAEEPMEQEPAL
Sequence of Histone deacetylase 2 (Q92769 whole entry): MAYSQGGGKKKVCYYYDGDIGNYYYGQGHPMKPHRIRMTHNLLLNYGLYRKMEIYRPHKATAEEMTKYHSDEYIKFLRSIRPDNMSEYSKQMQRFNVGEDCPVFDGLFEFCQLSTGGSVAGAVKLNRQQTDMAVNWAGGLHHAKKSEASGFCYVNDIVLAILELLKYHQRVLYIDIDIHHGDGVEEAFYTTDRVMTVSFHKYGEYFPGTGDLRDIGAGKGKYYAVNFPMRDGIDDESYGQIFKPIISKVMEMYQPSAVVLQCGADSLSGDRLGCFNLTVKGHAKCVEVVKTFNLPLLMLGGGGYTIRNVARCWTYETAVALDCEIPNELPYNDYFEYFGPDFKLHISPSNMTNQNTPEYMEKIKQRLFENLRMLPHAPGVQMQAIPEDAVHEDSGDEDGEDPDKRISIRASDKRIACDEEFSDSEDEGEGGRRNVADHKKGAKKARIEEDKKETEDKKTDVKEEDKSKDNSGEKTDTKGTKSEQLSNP
Sequence of Histone deacetylase 4 (P56524 whole entry): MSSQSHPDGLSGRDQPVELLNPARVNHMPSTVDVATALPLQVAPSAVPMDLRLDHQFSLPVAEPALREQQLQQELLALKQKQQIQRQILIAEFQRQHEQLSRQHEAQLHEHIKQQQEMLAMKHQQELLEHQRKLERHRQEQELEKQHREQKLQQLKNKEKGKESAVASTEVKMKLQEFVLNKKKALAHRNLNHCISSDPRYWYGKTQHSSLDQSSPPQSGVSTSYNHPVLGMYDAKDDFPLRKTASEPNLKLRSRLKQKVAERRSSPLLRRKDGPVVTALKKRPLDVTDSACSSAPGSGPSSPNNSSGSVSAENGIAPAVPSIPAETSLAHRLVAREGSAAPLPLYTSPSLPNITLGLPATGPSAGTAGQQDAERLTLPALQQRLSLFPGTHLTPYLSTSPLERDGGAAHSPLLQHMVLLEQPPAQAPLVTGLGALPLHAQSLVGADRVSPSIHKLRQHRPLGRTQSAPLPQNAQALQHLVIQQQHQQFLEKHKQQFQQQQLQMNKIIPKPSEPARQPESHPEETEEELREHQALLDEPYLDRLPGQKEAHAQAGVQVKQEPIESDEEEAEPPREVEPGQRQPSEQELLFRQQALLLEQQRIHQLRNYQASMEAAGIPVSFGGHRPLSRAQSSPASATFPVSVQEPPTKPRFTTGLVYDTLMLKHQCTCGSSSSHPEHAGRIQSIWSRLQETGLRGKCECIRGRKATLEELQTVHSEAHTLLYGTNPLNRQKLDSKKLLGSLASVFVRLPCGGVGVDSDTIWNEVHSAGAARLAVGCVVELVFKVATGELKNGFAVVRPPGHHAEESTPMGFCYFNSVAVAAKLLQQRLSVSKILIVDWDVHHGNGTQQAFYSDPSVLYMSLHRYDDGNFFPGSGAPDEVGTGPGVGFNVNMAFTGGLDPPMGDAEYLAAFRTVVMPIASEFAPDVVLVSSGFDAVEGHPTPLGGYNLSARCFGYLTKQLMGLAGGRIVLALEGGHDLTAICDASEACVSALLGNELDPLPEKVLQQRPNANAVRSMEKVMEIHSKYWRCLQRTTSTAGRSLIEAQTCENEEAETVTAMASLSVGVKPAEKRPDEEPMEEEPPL
Sequence of Histone deacetylase 9 (Q9UKV0 whole entry): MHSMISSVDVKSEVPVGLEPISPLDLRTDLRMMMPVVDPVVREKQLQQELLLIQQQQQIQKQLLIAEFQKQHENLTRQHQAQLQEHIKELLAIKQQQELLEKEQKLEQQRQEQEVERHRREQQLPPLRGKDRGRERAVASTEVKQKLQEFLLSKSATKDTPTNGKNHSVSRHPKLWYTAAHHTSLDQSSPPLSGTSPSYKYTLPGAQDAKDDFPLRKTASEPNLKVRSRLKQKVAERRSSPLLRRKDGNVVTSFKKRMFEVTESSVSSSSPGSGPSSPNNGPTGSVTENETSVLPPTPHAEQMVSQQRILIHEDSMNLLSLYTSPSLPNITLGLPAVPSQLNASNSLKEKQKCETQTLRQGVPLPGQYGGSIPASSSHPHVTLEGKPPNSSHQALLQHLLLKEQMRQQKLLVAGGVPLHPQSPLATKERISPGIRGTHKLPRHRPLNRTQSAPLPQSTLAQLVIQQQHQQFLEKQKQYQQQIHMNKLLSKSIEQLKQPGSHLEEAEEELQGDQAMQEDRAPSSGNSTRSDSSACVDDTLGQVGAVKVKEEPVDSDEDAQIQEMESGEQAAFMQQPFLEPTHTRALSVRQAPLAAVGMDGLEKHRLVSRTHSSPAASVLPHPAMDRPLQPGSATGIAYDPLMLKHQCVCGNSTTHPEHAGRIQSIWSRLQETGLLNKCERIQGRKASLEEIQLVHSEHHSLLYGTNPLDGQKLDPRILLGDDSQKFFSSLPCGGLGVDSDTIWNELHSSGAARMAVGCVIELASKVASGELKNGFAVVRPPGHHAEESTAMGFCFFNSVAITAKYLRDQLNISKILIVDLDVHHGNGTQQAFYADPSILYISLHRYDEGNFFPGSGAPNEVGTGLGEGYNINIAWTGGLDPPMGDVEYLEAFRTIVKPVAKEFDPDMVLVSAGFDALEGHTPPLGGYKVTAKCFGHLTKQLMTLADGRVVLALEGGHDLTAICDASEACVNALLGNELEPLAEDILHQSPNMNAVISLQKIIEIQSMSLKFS
Sequence of Histone deacetylase 3 (O15379 whole entry): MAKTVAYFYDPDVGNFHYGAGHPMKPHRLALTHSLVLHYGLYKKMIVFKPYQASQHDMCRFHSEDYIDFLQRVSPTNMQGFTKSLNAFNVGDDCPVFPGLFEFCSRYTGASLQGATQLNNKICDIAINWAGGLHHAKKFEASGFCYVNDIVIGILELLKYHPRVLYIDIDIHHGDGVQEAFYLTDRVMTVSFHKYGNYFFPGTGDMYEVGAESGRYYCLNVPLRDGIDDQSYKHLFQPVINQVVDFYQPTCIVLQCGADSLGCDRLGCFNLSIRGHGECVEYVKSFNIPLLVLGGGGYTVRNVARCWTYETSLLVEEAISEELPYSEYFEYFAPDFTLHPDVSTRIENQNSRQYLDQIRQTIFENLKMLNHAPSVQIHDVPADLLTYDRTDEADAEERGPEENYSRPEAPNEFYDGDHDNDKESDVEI

| Structure (SMILES) | IC50 (Histone deacetylase 1) [nM] | IC50 (PC-3 [1]) [nM] | IC50 (HCT-116 [2]) [nM] | IC50 (NCI-H2228 [3]) [nM] | IC50 (Huh-7 [4]) [nM] | IC50 (MCF7 [5]) [nM] | IC50 (MDA-MB-231 [6]) [nM] | further results |
| --- | --- | --- | --- | --- | --- | --- | --- | --- |
| CCCNNC(=O)CCCCCCCn1c2cc3c(cc2c2[nH]c(=O)c4ccccc4c21)OCO3 | 1720 | > 8000 | > 8000 | > 8000 | > 8000 | > 8000 | > 8000 |  |
| CCNNC(=O)CCCCn1c2cc3c(cc2c2[nH]c(=O)c4ccccc4c21)OCO3 | 1650 | 3560 | 3190 | 2390 | 7410 | 4080 | > 8000 |  |
| CCCNNC(=O)c1ccc(Cn2c3cc4c(cc3c3[nH]c(=O)c5ccccc5c32)OCO4)cc1 | 1090 | 1530 | 1500 | 2170 | 6280 | 1970 | 4450 |  |
| COc1cc([C@@H]2c3cc4c(cc3[C@@H](O[C@@H]3O[C@@H]5CO[C@@H](C)O[C@H]5[C@H](O)[C@H]3O)[C@H]3COC(=O)[C@H]23)OCO4)cc(OC)c1O [ETOPOSIDE] |  |  |  |  |  |  | 2870 | IC50 (PC-3 [7]): 650 nM; IC50 (NCI-H2228 [8]): 840 nM; IC50 (Huh-7 [9]): 810 nM; IC50 (HCT-116 [10]): 950 nM; IC50 (MCF7 [11]): 640 nM; IC50 (MDA-MB-231 [12]): 1010 nM |
| O=C(CCCCCCn1c2cc3c(cc2c2ncc4ccccc4c21)OCO3)NO |  |  |  |  |  |  |  | IC50 (Histone deacetylase 2): 3 nM; IC50 (Histone deacetylase 3): 3 nM; IC50 (Histone deacetylase 4): > 5000 nM; IC50 (Histone deacetylase 5): > 5000 nM; IC50 [13]: 4 nM; IC50 (Histone deacetylase 7): > 5000 nM; IC50 (Histone deacetylase 8): > 1000 nM; IC50 (Histone deacetylase 9): > 5000 nM; IC50 [14]: 6 nM; IC50 (Histone deacetylase 11): > 5000 nM |
| CCCCNNC(=O)CCCCn1c2cc3c(cc2c2[nH]c(=O)c4ccccc4c21)OCO3 | 3320 | 3240 | 3520 | 2170 | 6490 | 4110 | 4330 |  |
| O=C(CCCCCCCn1c2cc3c(cc2c2ncc4ccccc4c21)OCO3)NO | < 2 | 2500 | 2680 | 4600 | 6590 | > 8000 | 2220 |  |
| CCCNNC(=O)CCCCn1c2cc3c(cc2c2[nH]c(=O)c4ccccc4c21)OCO3 | 640 | 930 | 1310 | 1170 | 2740 | 1270 | 2620 |  |
| CCCNNC(=O)CCCCCCn1c2cc3c(cc2c2ncc4ccccc4c21)OCO3 | 130 | > 8000 | > 8000 | > 8000 | > 8000 | > 8000 | > 8000 |  |
| CCCNNC(=O)CCCCCn1c2cc3c(cc2c2[nH]c(=O)c4ccccc4c21)OCO3 | 500 | 4600 | 2880 | 2840 | > 8000 | > 8000 | 5910 |  |
